Reference: patent US11105747B2, “Spectroscopic methods to detect and characterize microorganisms” (Spectral Platforms, Inc., priority 2017, dated 2021)
In brackets after ≈: the same amount, converted by molar mass.

System: unknown pathogen
Assay: Antimicrobial susceptibility (MIC/MBC) from Raman slope and time to cloudiness versus antimicrobial concentration
Format: cell-based
Method: To measure the minimum inhibitory concentration, or to otherwise characterize the antimicrobial susceptibility of any unknown pathogen to a candidate antimicrobial: • (a) Incubate the unknown pathogen for about 3 hours in a rich media. This time period should suffice to increase the concentration of the causative pathogen by about >100×. […] Incubate this mixture for another 20 minutes, which allows for sufficient time for the 10 CFUs to interact with the candidate antimicrobial. • (d) Add the 7 mixtures to the test vials, and test. The number of free radicals present in the mixed sample is a function of the concentration of the antimicrobial, and so the final slope can be plotted against antimicrobial concentration to develop estimates for the MIC. This is illustrated in FIGS. 32A and 32B.
FIG. 32A depicts the measured slope as a function of antimicrobial agent (vancomycin) concentration. FIG. 32B depicts the time taken for the tested samples to become cloudy. Above 2 μg/m L, the samples remain clear for very long incubation periods (>96 hours). Thus, the Minimum Bactericidal Concentration MBC is about 2 μg/mL. Above 0.25 mg/mL, the time to cloudiness increases slightly. […] As illustrated in FIGS. 32A and 32B, the MIC corresponds to the concentration at which the signal decreases slightly. Further, the MBC (Minimum Bactericidal Concentration) corresponds to the concentration at which the signal increases again.

**Q.** `CN[C@H](CC(C)C)C(=O)N[C@H]1C(=O)N[C@@H](CC(N)=O)C(=O)N[C@H]2C(=O)N[C@H]3C(=O)N[C@H](C(=O)N[C@H](C(=O)O)c4cc(O)cc(O)c4-c4cc3ccc4O)[C@H](O)c3ccc(c(Cl)c3)Oc3cc2cc(c3O[C@@H]2O[C@H](CO)[C@@H](O)[C@H](O)[C@H]2O[C@H]2C[C@](C)(N)[C@H](O)[C@H](C)O2)Oc2ccc(cc2Cl)[C@H]1O` [vancomycin] was tested. Which “time taken for the tested samples to become cloudy (samples remain clear)” value (above 2 μg/mL vancomycin) did it give?
**A.** Its value is over 96 h.

**Q.** What about the MBC (concentration above which samples remain clear, signal increases again, read-out: Minimum Bactericidal Concentration MBC) of the same molecule?
**A.** Its MBC is about 2 µg/mL (≈ 1.38 µM).

**Q.** What about the MIC (read-out: MIC (minimum inhibitory concentration)) of the same molecule?
**A.** The MIC was about 250 µg/mL (≈ 173 µM).
